Source: BindingDB's records for doi:10.1021/jm00042a004 (College of Pharmacy, 1994)

Key:
[1] = target: Reverse transcriptase/RNase H (HIV-1); test: The 50% inhibitory concentration was measured as inhibition of RNA-dependent DNA polymerase activity
[2] = target: Reverse transcriptase/RNase H (HIV-1); test: The 50% inhibitory concentration was measured as inhibition of DNA-dependent DNA polymerase activity

| Structure (SMILES) | IC50 [1] [µM] | IC50 [2] [µM] |
| --- | --- | --- |
| CCCCCCCCCCCCCCCC(=O)Nc1c(O)cc(S(=O)(=O)O)c2ccccc12 [4-Hexadecanoylamino-3-hydroxy-naphthalene-1-sulfonic acid] | 3.2 |  |
| CCCCCCCCCCCCCCCC(=O)Nc1ccc(S(=O)(=O)O)c2cccc(S(=O)(=O)O)c12 [4-Hexadecanoylamino-naphthalene-1,5-disulfonic acid] | 1.6 | 6.7 |
| O=S(=O)(O)c1ccc2c(OS(=O)(=O)c3cccc4c(S(=O)(=O)Oc5cc(S(=O)(=O)O)cc6cc(S(=O)(=O)O)ccc56)cccc34)cc(S(=O)(=O)O)cc2c1 [4-[5-(3,6-disulfo-1-naphthyloxysulfonyl)-1-naphthylsulfonyloxy]-2,7-naphthalenedisulfonic acid] | 4.3 | 91.3 |
| O=C(Oc1cc(S(=O)(=O)O)cc2cc(S(=O)(=O)O)ccc12)c1ccc(-c2ccc(C(=O)Oc3cc(S(=O)(=O)O)cc4cc(S(=O)(=O)O)ccc34)cc2)cc1 [Biphenyl-4,4'-dicarboxylic acid bis-(3,6-disulfo-naphthalen-1-yl) ester] | 3.4 | 6.9 |
